Test results: article PMC7724679, “Identification of Repurposable Drugs and Adverse Drug Reactions for Various Courses of COVID-19 Based on Single-Cell RNA Sequencing Data” (ArXiv, 2020)

Legend:
Type in all cases: cell-based
[1] = tested on: Influenza A virus (IAV, Puerto Rico/8/1934(H1N1)); test: Antiviral assay, IAV viral RNA in supernatant by RT-qPCR, Vero E6 cells; conditions: for IC50: read-out: IC50, antiviral activity against IAV
Vero E6 cells = test: Drug-induced cytotoxicity, CCK-8, Vero E6 cells; conditions: 24 h
Procedure: (§1) The drug-induced cytotoxicity of the test drugs (tyrphostin-AG-1478 and brefeldin-a) on Calu-3 and Vero E6 cells was determined by a cell counting kit 8 (CCK-8, APExBIO). Cells were cultured overnight in 96-well cell-culture Petri dishes at a density of 1 × 10^4 cells/well. A 10 mM stock of drug was serially diluted in 100% DMSO to obtain a 10-point dilution series. Plates were cultured with fresh drug-containing medium at 37°C for 24 h. The DMSO concentration remained constant under all conditions at 0.05%. The absorbance of each well was determined by using a 96-well multiscanner. After subtracting background absorption, the results were expressed as a percentage of viability relative to that of control cultures that received no drug. Drug concentrations that inhibited cell viability by 50% (IC50) were determined by using GraphPad Prism 8 software.

[2] = tested on: mRNA levels of MX1, ISG15, IFNB1, ACE2; test: Cellular mRNA levels by qPCR in IAV-infected Calu-3 cells; conditions: IAV-infected Calu-3 cells (MOI of 1), 0 to 10 μM
Calu-3 cells = test: Drug-induced cytotoxicity, CCK-8, Calu-3 cells; conditions: 24 h
Procedure: as §1

[3] = tested on: Influenza A virus (IAV, Puerto Rico/8/1934(H1N1)); test: Antiviral assay, IAV viral RNA in supernatant by RT-qPCR, Calu-3 cells; conditions: for IC50: read-out: IC50, antiviral activity against IAV

Row | Structure (SMILES) | IAV viral RNA levels in cell culture supernatant [1] | IC50 [1] | cytotoxicity (cell viability) (Vero E6 cells) | ACE2 mRNA level [2] | IFNβ (IFNB1) mRNA level [2] | ISG15 mRNA level [2] | MX1 mRNA level [2] | cytotoxicity (cell viability) (Calu-3 cells) | IAV viral RNA levels in cell culture supernatant [3] | IC50 [3] | IC50 ([1]; Influenza A virus, H1N1 / PR8, Vero C1008) | IC50 ([3]; Influenza A virus, H1N1 / PR8, Calu-3)
1 | COc1cc2ncnc(Nc3cccc(Cl)c3)c2cc1OC [Tyrphostin-AG-1478] | reduced IAV viral RNA levels dose dependently | 53 nM | Neither compound caused significant cytotoxicity | increased | elevated | elevated | elevated | Neither compound caused significant cytotoxicity | reduced IAV viral RNA levels dose dependently | 43 nM | – | –
2 | C[C@H]1CCC/C=C/[C@@H]2C[C@H](O)C[C@H]2[C@H](O)/C=C/C(=O)O1 [Brefeldin-a] | reduced IAV viral RNA levels dose dependently | – | slightly reduced viability | significantly reduced | significantly reduced | significantly reduced | significantly reduced | Neither compound caused significant cytotoxicity | reduced IAV viral RNA levels dose dependently | – | 246 nM | 59 nM
